According to patent publication US20100267002A1, “PEPTIDE HAVING LIFE-LENGTHENING EFFECT ON CELLS” (National Institute of Advanced Industrial Science and …, priority 2009, published 2010):

Assays:
[1] = tested on: HepG2 cells; experiment: HepG2 cell preservation at 4° C., survival ratio by Cellstain (Calcein-AM/PI) fluorescent double staining; type: cell-based, human; settings: for cell survival ratio (fluorescent dye observation): HepG2, 4° C., 48 hours, peptide 10 mg/ml in Euro-Collins solution
Description: (§1) Nfe6-, Nfe8-, and Nfe11-based confirmation of cell protecting effects and cell preserving effects was performed with the use of the HepG2 cell line (FIG. 3) derived from the human liver (purchased from Riken Cell Bank). The experiment was carried out using the HepG2 cells that had been cultured for about a week in Dulbecco's Modified Eagle's Medium (DMEM) (Sigma-Aldrich, Japan) (a culture solution) containing 10% bovine serum (FBS, Gibco) and 50 μg/ml penicillin/streptomycin (Invitrogen). FBS was inactivated by heating at 56° C. for 30 minutes and then used. Culture was conducted in a CO2 incubator (SANYO) using a flask in an atmosphere of 5% CO2 at 37° C. The HepG2 cells that had reached subconfluent conditions (i.e., conditions immediately before the container becomes filled with cells) were treated with a trypsin solution (Wako Pure Chemical Industries, Ltd.) to prepare a cell suspension. The cell suspension was sowed on a cell culture microplate, culture was conducted in a CO2 incubator (5% CO2, 37° C.) overnight, and the resultant was then used for the preservation experiment. In all the experiments described below, cells were preserved at 4° C.
The cells that had been subjected to preservation treatment for 48 hours were stained with Cellstain (Cell Double Staining Kit, available from Dojindo Laboratories), and the cells were observed under a fluorescent microscope (Olympus IX70) to evaluate the survival ratio. Cellstain (Cell Double Staining Kit) involves the use of Calcein-AM fluorescent dye, which stains viable cells, in combination with PI (Propidium iodide) fluorescent dye, which stains dead cells. […] Thereafter, the cell culture plate was mounted on a fluorescent microscope, and “viable cells stained yellow green” were observed using a fluorescence cube for GFP (excitation filter: BP460-480; dichroic mirror: DM450; absorption filter: BA460-510). Also, “dead cells stained red” were observed using a fluorescence cube for YFP (excitation filter: BP490-500; dichroic mirror: DM505; absorption filter: BA515-560).

[2] = tested on: HepG2 cells; experiment: HepG2 cell preservation at 4° C., survival ratio by WST-8 (Cell Counting Kit-8); type: cell-based, human; settings: HepG2, 4° C., 48 hours, peptide 10 mg/ml in EC solution, 11 repetitions
Description: as §1, with “The cell suspension was sowed on a cell culture microplate, culture was conducted in a CO2 incubator (5% CO2, 37° C.) overnight, and the resultant was then used for the preservation experiment. In all the experiments described below, cells were preserved at 4° C.” left out
[…] The amount of water-soluble formazan in the medium was evaluated by measuring the absorbance at 450 nm using a microplate reader (Sunrise Remote, Wako Pure Chemical Industries, Ltd.), and the percentage of viable cells after the cell preservation experiment was determined using the number of cells determined by adding WST-8 to the HepG2 cells before the preservation experiment as a control (100%).

[3] = tested on: HepG2 cells; experiment: HepG2 cell preservation at 4° C., survival ratio by amount of LDH released; type: cell-based, human; settings: HepG2, 4° C., peptide 10 mg/ml in EC solution, 11 repetitions; for survival ratio based on the assay of the amount of LDH: 24 hours
Description: as §1
Further, the cell survival ratio after 24-hour-preservation was estimated using the LDH Cytotoxicity Detection Kit (Takara Bio Inc.). The LDH amount was measured by sowing the cell suspension prepared by the method described in (5) on a 4-well cell culture plate (Nalge Nunc International K.K.) and subjecting the resultants to the preservation experiment at 4° C. for 24 hours and for 48 hours. […] The amount of red formazan generated was evaluated by assaying the absorbance at 490 nm using a microplate reader (Sunrise Remote, Wako Pure Chemical Industries, Ltd.). In this experiment, the LDH amount when the HepG2 cells had been preserved for 24 hours using a cell preservative solution containing 1% Triton X (the A2 solution) was designated as 100% and the percentage of LDH in the experiment was determined based thereon.

[4] = tested on: HepG2 cells; experiment: HepG2 cell preservation at 4° C., survival ratio by amount of ATP (CellTiter-Glo); type: cell-based, human; settings: HepG2, 4° C., 48 hours, peptide 10 mg/ml in EC solution, 11 repetitions
Description: Nfe6-, Nfe8-, and Nfe11-based confirmation of cell protecting effects and cell preserving effects was performed with the use of the HepG2 cell line (FIG. 3) derived from the human liver (purchased from Riken Cell Bank). The experiment was carried out using the HepG2 cells that had been cultured for about a week in Dulbecco's Modified Eagle's Medium (DMEM) (Sigma-Aldrich, Japan) (a culture solution) containing 10% bovine serum (FBS, Gibco) and 50 μg/ml penicillin/streptomycin (Invitrogen). FBS was inactivated by heating at 56° C. for 30 minutes and then used. Culture was conducted in a CO2 incubator (SANYO) using a flask in an atmosphere of 5% CO2 at 37° C. […]
Since the metabolism is reduced at low temperatures, substantially no ATP is synthesized in cells. […] The ATP concentration was measured using a 96-well cell culture plate for emission measurement (Nalge Nunc International K.K.) and the HepG2 cells prepared by the method described in (5). […] ATP concentration after preservation was evaluated by adding a luminescent reagent (CellTiter-Glo, Promega) to wells and assaying the luminescent intensity using a microplate reader (Wallac 1420 ARVOsx, PerkinElmer Life Sciences, Japan). […]

[5] = tested on: fertilized eggs of Japanese Black Cattle; experiment: preservation of fertilized eggs of Japanese Black Cattle at 4° C., survival by microscopic observation; type: cell-based
Description: The fertilized eggs of Japanese Black Cattle were subjected to the preservation experiment at 4° C. for 72 to 96 hours (3 to 4 days) using Nfe11, and the survival ratio of the fertilized eggs after preservation was assayed. At the outset, the follicle-stimulating hormones (FSH) were used to subject superovulated […] cattle to artificial insemination. Seven days thereafter, 3 to 6 fertilized eggs at the initial blastocyst stage were removed from the salpinx of the […] cattle and introduced into a straw having a diameter of 400 micrometers. In this case, Nfe11 powder samples were dissolved in a phosphate buffer (PBS) to a concentration of 5 mg/ml or 10 mg/ml, and the recovered fertilized eggs were soaked in the resulting solutions. Both ends of the straw were sealed, the resultant was allowed to stand in a refrigerator at 4° C., and the preservation experiment was carried out for 72 hours to 96 hours. Survival of the fertilized eggs after the preservation experiment was evaluated using a microscopic observation. As a result, the data as shown below were obtained.

| Substance | cell survival ratio (fluorescent dye observation) [1] | cell protection effects ([1]; HepG2 cell lines, 10 mg/ml in Euro-Collins solution) | survival ratio of HepG2 cells, amount of WST-8 [2] [%] | survival ratio based on the assay of the amount of LDH [3] [%] | cell survival ratio, amount of LDH released (100 minus LDH value) ([3]; 48 hours) [%] | cell survival ratio, amount of ATP [4] [%] | survival ratio of cattle fertilized eggs ([5]; 5 mg/ml in PBS, 72 hours) [%] | survival ratio of cattle fertilized eggs ([5]; 5 mg/ml in PBS, 96 hours) [%] | survival ratio of cattle fertilized eggs ([5]; 10 mg/ml in PBS, 96 hours) [%] |
| --- | --- | --- | --- | --- | --- | --- | --- | --- | --- |
| Nfe11: recombinant 66-residue peptide from Zoarces elongatus Kner, amino acid sequence SEQ ID NO: 6, no thermal hysteresis activity | about 75% | sufficient cell protection effects | ~48 | ~34 | ~62 | 60 | 67 | 50 | 50 |
| Nfe6: recombinant Nfe peptide from Zoarces elongatus Kner, SEQ ID NO: 2, no thermal hysteresis activity [reference compound] | about 40% | – | – | ~56 | – | – | – | – | – |
